Assay results published in PubChem BioAssay AID248 (DTP/NCI, 2004).
“And” between values parts separate entries of the source, which are not always exact repeats. Identical values can stand only once. Inconclusive results and toxic doses are left out.

Test system: L1210 leukemia ip in BDF1 mice, survival T/C
Assay: NCI In Vivo Anticancer Drug Screen. Data for tumor model L1210 Leukemia (intraperitoneal) in B6D2F1 (BDF1) mice
Conditions: endpoint: mean survival time, higher = longer survival
Summary of the method: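 Mice bearing the transplanted tumor received compound or vehicle. Survival of the treated group was divided by that of the vehicle-treated control group to give the ratio.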

[1] = dose: 25.0 mg/kg/injection, schedule: Q01DX Z (ip), vehicle: methylcellulose (MC)
[2] = dose: 100.0 mg/kg/injection, schedule: Q01DX001 (ip), vehicle: carboxymethylcellulose (CMC)
[3] = dose: 200.0 mg/kg/injection, schedule: Q01DX001 (ip), vehicle: carboxymethylcellulose (CMC)
[4] = dose: 400.0 mg/kg/injection, schedule: Q01DX001 (ip), vehicle: carboxymethylcellulose (CMC)

With Cn1cnc([N+](=O)[O-])c1Sc1ncnc2nc[nH]c12 the T/C (dose: 8.0 mg/kg/injection, schedule: Q01DX Z (ip), vehicle: methylcellulose (MC)) was 109 % of control, the T/C (dose: 12.0 mg/kg/injection, schedule: Q01DX Z (ip), vehicle: methylcellulose (MC)) was 112 % of control and the T/C (dose: 17.0 mg/kg/injection, schedule: Q01DX Z (ip), vehicle: methylcellulose (MC)) was 117 % of control. For the same compound, the T/C [1] was 104 % of control, the T/C (dose: 62.0 mg/kg/injection, schedule: Q01DX001 (ip), vehicle: carboxymethylcellulose (CMC)) was 124 % of control and the T/C (dose: 250.0 mg/kg/injection, schedule: Q01DX001 (ip), vehicle: carboxymethylcellulose (CMC)) was 150 % of control. For the same compound, the T/C (dose: 500.0 mg/kg/injection, schedule: Q01DX001 (ip), vehicle: carboxymethylcellulose (CMC)) was 165 % of control.
In the case of O=c1ccc2c(-c3cc(S(=O)(=O)O)ccc3O)c3ccc(O)cc3oc-2c1, the T/C (dose: 100.0 mg/kg/injection, schedule: Q04DX003 (ip), vehicle: Klucel (hydroxypropylcellulose) (HPC)) is reported as 91 % of control, the T/C (dose: 200.0 mg/kg/injection, schedule: Q04DX003 (ip), vehicle: Klucel (hydroxypropylcellulose) (HPC)) is reported as 89 % of control and the T/C (dose: 400.0 mg/kg/injection, schedule: Q04DX003 (ip), vehicle: Klucel (hydroxypropylcellulose) (HPC)) is reported as 91 % of control.
In the case of CCCCC[C@@H](CN(C)C)[C@H](O)/C=C/c1ccc(Cl)cc1, the T/C (dose: 12.5 mg/kg/injection, schedule: Q01DX009 (ip), vehicle: saline) is reported as 102 % of control, the T/C (dose: 12.5 mg/kg/injection, schedule: Q04DX003 (ip), vehicle: saline) is reported as 88 % of control and the T/C (dose: 25.0 mg/kg/injection, schedule: Q01DX009 (ip), vehicle: saline) is reported as 98 % of control. For the same compound, the T/C (dose: 25.0 mg/kg/injection, schedule: Q04DX003 (ip), vehicle: saline) was 93 % of control, the T/C (dose: 50.0 mg/kg/injection, schedule: Q01DX009 (ip), vehicle: saline) was 93 % of control and 97 % of control and the T/C (dose: 50.0 mg/kg/injection, schedule: Q04DX003 (ip), vehicle: saline) was 93 % of control. The T/C (dose: 200.0 mg/kg/injection, schedule: Q04DX003 (ip), vehicle: saline) was 102 % of control.
With CCCCCCc1cc(OC(=O)c2ccccc2)ccc1OC(=O)c1ccccc1 the T/C (dose: 50.0 mg/kg/injection, schedule: Q01DX001 (ip), vehicle: carboxymethylcellulose (CMC)) was 94 % of control, the T/C [2] was 97 % of control and the T/C [3] was 89 % of control. For the same compound, the T/C [4] was 97 % of control.
For COC(=O)C1(C)CCCC2(C)c3cc(OC)ccc3C3OC3C12 (stereo not given), the T/C (dose: 100.0 mg/kg/injection, schedule: Q04DX003 (ip), vehicle: other) was 103 % of control, the T/C (dose: 200.0 mg/kg/injection, schedule: Q04DX003 (ip), vehicle: other) was 100 % of control and the T/C (dose: 400.0 mg/kg/injection, schedule: Q04DX003 (ip), vehicle: other) was 101 % of control.
With CN(C)N=Nc1cccc(C(=O)O)c1 the T/C (dose: 50.0 mg/kg/injection, schedule: Q04DX002 (ip), vehicle: other) was 106 % of control, the T/C (dose: 100.0 mg/kg/injection, schedule: Q04DX002 (ip), vehicle: other) was 113 % of control and the T/C (dose: 200.0 mg/kg/injection, schedule: Q04DX002 (ip), vehicle: other) was 113 % of control. The T/C (dose: 400.0 mg/kg/injection, schedule: Q04DX002 (ip), vehicle: other) was 124 % of control.
With CSc1nc(Cl)c(-c2ccccc2)c(N2CC2)n1 the T/C [1] was 98 % of control and the T/C (dose: 50.0 mg/kg/injection, schedule: Q01DX Z (ip), vehicle: methylcellulose (MC)) was 90 % of control.
For CCOCCOC(=O)c1ccc(C#N)cc1, the T/C (dose: 100.0 mg/kg/injection, schedule: Q01DX001 (ip), vehicle: saline) was 100 % of control, the T/C (dose: 200.0 mg/kg/injection, schedule: Q01DX001 (ip), vehicle: saline) was 97 % of control and the T/C (dose: 400.0 mg/kg/injection, schedule: Q01DX001 (ip), vehicle: saline) was 97 % of control.
For Cc1ccc(NC(=O)Nc2ccc(C)cc2C)cc1, the T/C [2] was 90 % of control, the T/C [3] was 98 % of control and the T/C [4] was 92 % of control.
With CC(=O)Oc1c2ccccc2cc2ccccc12 the T/C (dose: 100.0 mg/kg/injection, schedule: Q04DX002 (ip), vehicle: Klucel (hydroxypropylcellulose) (HPC)) was 114 % of control and the T/C (dose: 400.0 mg/kg/injection, schedule: Q04DX002 (ip), vehicle: Klucel (hydroxypropylcellulose) (HPC)) was 118 % of control.
CCCCNCCN(CC)CC was tested, and the T/C (dose: 100.0 mg/kg/injection, schedule: Q04DX003 (ip), vehicle: saline with Tween-80) was 98 % of control.
In the case of CC12CCC(=O)C=C1CCC1C2CCC2(C)C(OC(=O)c3ccc(N)cc3)CCC12 (stereo not given), the T/C (dose: 100.0 mg/kg/injection, schedule: Q04DX002 (ip), vehicle: saline with Tween-80) is reported as 94 % of control, the T/C (dose: 200.0 mg/kg/injection, schedule: Q04DX002 (ip), vehicle: saline with Tween-80) is reported as 91 % of control and the T/C (dose: 400.0 mg/kg/injection, schedule: Q04DX002 (ip), vehicle: saline with Tween-80) is reported as 94 % of control.
In the case of CCOC(=O)c1cc([N+](=O)[O-])cnc1C, the T/C (dose: 100.0 mg/kg/injection, schedule: Q01DX001 (ip), vehicle: saline sonified) is reported as 96 % of control, the T/C (dose: 200.0 mg/kg/injection, schedule: Q01DX001 (ip), vehicle: saline sonified) is reported as 96 % of control and the T/C (dose: 400.0 mg/kg/injection, schedule: Q01DX001 (ip), vehicle: saline sonified) is reported as 97 % of control.
